System: K24384-001-R-PDC complex spheroids, viability
Test: Anticancer human tumor K24384-001-R-PDC patient-derived pancreatic adenocarcinoma cell line growth inhibition [GQUAD]
Details: for IC50: curve of first compound; for viability, T/C: stronger effect = lower value
Procedure, shortened: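 Viability of tumor cells grown as complex spheroids with endothelial and stromal cells, exposed to drug combinations. Top concentration at or near clinical Cmax (else 10 microM), diluted in half-log increments.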

[1] = second compound 0.0316 µM, first compound 0.0316 µM
[2] = second compound 0.0316 µM, first compound 0.316 µM
[3] = second compound 0.1 µM, first compound 0.0316 µM
[4] = second compound 0.1 µM, first compound 0.316 µM
[5] = second compound 0.316 µM, first compound 0.0316 µM
[6] = second compound 0.316 µM, first compound 0.316 µM
[7] = second compound 1 µM, first compound 0.0316 µM
[8] = second compound 1 µM, first compound 0.316 µM
[9] = second compound 3.16 µM, first compound 0.0316 µM
[10] = second compound 3.16 µM, first compound 0.316 µM
[11] = second compound 10 µM, first compound 0.0316 µM
[12] = second compound 10 µM, first compound 0.316 µM
[13] = second compound 0.0316 µM, first compound 0.000999 µM
[14] = second compound 0.0316 µM, first compound 0.00316 µM
[15] = second compound 0.0316 µM, first compound 0.00999 µM
[16] = second compound 0.0316 µM, first compound 0.0999 µM
[17] = second compound 0.1 µM, first compound 0.000999 µM
[18] = second compound 0.1 µM, first compound 0.00316 µM
[19] = second compound 0.1 µM, first compound 0.00999 µM
[20] = second compound 0.1 µM, first compound 0.0999 µM
[21] = second compound 0.316 µM, first compound 0.000999 µM
[22] = second compound 0.316 µM, first compound 0.00316 µM
[23] = second compound 0.316 µM, first compound 0.00999 µM
[24] = second compound 0.316 µM, first compound 0.0999 µM
[25] = second compound 1 µM, first compound 0.000999 µM
[26] = second compound 1 µM, first compound 0.00316 µM
[27] = second compound 1 µM, first compound 0.00999 µM
[28] = second compound 1 µM, first compound 0.0999 µM
[29] = second compound 3.16 µM, first compound 0.000999 µM
[30] = second compound 3.16 µM, first compound 0.00316 µM
[31] = second compound 3.16 µM, first compound 0.00999 µM
[32] = second compound 3.16 µM, first compound 0.0999 µM
[33] = second compound 10 µM, first compound 0.000999 µM
[34] = second compound 10 µM, first compound 0.00316 µM
[35] = second compound 10 µM, first compound 0.00999 µM
[36] = second compound 10 µM, first compound 0.0999 µM
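Also: spheroids exposed to compounds for seven days.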

`C#Cc1c(F)ccc2cc(O)cc(-c3ncc4c(N5CC6CCC(C5)N6)nc(OCC56CCCN5CC(F)C6)nc4c3F)c12` (stereo unspecified) + Cc1[nH]c2ccc(F)cc2c1-c1nc2c3cccnc3c3ncccc3c2[nH]1 was tested, and the IC50 (second compound 0.0316 µM) was 1360 nM, the IC50 (second compound 0.1 µM) was 1490 nM and the IC50 (second compound 0.316 µM) was 1540 nM. The IC50 (second compound 1 µM) was 1820 nM, the IC50 (second compound 3.16 µM) was 969 nM and the IC50 (second compound 10 µM) was 1080 nM. It also gave a viability, T/C [1] of 99.9%, a viability, T/C (second compound 0.0316 µM, first compound 0.1 µM) of 99.6% and a viability, T/C [2] of 129%. For the same compound, the viability, T/C (second compound 0.0316 µM, first compound 1 µM) was 58.5%, the viability, T/C (second compound 0.0316 µM, first compound 3.16 µM) was 34.4% and the viability, T/C (second compound 0.0316 µM, first compound 10 µM) was 18.2%. For the same compound, the viability, T/C [3] was 93.9%, the viability, T/C (second compound 0.1 µM, first compound 0.1 µM) was 112% and the viability, T/C [4] was 85.1%. It also gave a viability, T/C (second compound 0.1 µM, first compound 1 µM) of 58%, a viability, T/C (second compound 0.1 µM, first compound 3.16 µM) of 34.3% and a viability, T/C (second compound 0.1 µM, first compound 10 µM) of 14.5%. The viability, T/C [5] was 97.1%, the viability, T/C (second compound 0.316 µM, first compound 0.1 µM) was 101% and the viability, T/C [6] was 74.4%. For the same compound, the viability, T/C (second compound 0.316 µM, first compound 1 µM) was 57.4%, the viability, T/C (second compound 0.316 µM, first compound 3.16 µM) was 39.2% and the viability, T/C (second compound 0.316 µM, first compound 10 µM) was 19.1%. The viability, T/C [7] was 91%, the viability, T/C (second compound 1 µM, first compound 0.1 µM) was 101% and the viability, T/C [8] was 83%. The viability, T/C (second compound 1 µM, first compound 1 µM) was 64.1%, the viability, T/C (second compound 1 µM, first compound 3.16 µM) was 37.5% and the viability, T/C (second compound 1 µM, first compound 10 µM) was 16.9%. For the same compound, the viability, T/C [9] was 75.6%, the viability, T/C (second compound 3.16 µM, first compound 0.1 µM) was 87.6% and the viability, T/C [10] was 64.7%. For the same compound, the viability, T/C (second compound 3.16 µM, first compound 1 µM) was 47.1%, the viability, T/C (second compound 3.16 µM, first compound 3.16 µM) was 31.3% and the viability, T/C (second compound 3.16 µM, first compound 10 µM) was 11.7%. The viability, T/C [11] was 80.5%, the viability, T/C (second compound 10 µM, first compound 0.1 µM) was 68.6% and the viability, T/C [12] was 69%. For the same compound, the viability, T/C (second compound 10 µM, first compound 1 µM) was 52.4%, the viability, T/C (second compound 10 µM, first compound 3.16 µM) was 27.5% and the viability, T/C (second compound 10 µM, first compound 10 µM) was 10.8%.

`CC[C@@]1(O)C(=O)OCc2c1cc1n(c2=O)Cc2cc3c(CN(C)C)c(O)ccc3nc2-1` + Cc1[nH]c2ccc(F)cc2c1-c1nc2c3cccnc3c3ncccc3c2[nH]1 gave an IC50 (second compound 0.0316 µM) greater than 316 nM, an IC50 (second compound 0.1 µM) of 292 nM and an IC50 (second compound 0.316 µM) of 233 nM. For the same compound, the IC50 (second compound 1 µM) was 239 nM, the IC50 (second compound 3.16 µM) was 139 nM and the IC50 (second compound 10 µM) was 146 nM. The viability, T/C [13] was 102%, the viability, T/C [14] was 110% and the viability, T/C [15] was 95.7%. It also gave a viability, T/C [1] of 80.9%, a viability, T/C [16] of 61.3% and a viability, T/C [2] of 51.2%. For the same compound, the viability, T/C [17] was 83.5%, the viability, T/C [18] was 113% and the viability, T/C [19] was 82.4%. For the same compound, the viability, T/C [3] was 87.7%, the viability, T/C [20] was 65.8% and the viability, T/C [4] was 49%. It also gave a viability, T/C [21] of 85.4%, a viability, T/C [22] of 92.2% and a viability, T/C [23] of 83.1%. It also gave a viability, T/C [5] of 82.9%, a viability, T/C [24] of 68.3% and a viability, T/C [6] of 43.4%. The viability, T/C [25] was 95.7%, the viability, T/C [26] was 92.8% and the viability, T/C [27] was 98.8%. For the same compound, the viability, T/C [7] was 76.8%, the viability, T/C [28] was 59% and the viability, T/C [8] was 46.7%. For the same compound, the viability, T/C [29] was 73.8%, the viability, T/C [30] was 74.7% and the viability, T/C [31] was 79.1%. It also gave a viability, T/C [9] of 81.2%, a viability, T/C [32] of 53.6% and a viability, T/C [10] of 41%. It also gave a viability, T/C [33] of 78.1%, a viability, T/C [34] of 55% and a viability, T/C [35] of 66.4%. For the same compound, the viability, T/C [11] was 67.4%, the viability, T/C [36] was 58.8% and the viability, T/C [12] was 31.3%.

Compound `Cc1[nH]c2ccccc2c1CCNCc1ccc(/C=C/C(=O)NO)cc1` + CN(C)c1ccc(Nc2c3ccc(NC(=O)CCN4CCCC4)cc3nc3cc(NC(=O)CCN4CCCC4)ccc23)cc1 has an IC50 (second compound 0.0316 µM) of 139 nM, an IC50 (second compound 0.1 µM) of 103 nM and an IC50 (second compound 0.316 µM) of 101 nM. For the same compound, the IC50 (second compound 1 µM) was 109 nM, the IC50 (second compound 3.16 µM) was 99.1 nM and the IC50 (second compound 10 µM) was 83.7 nM. The viability, T/C [13] was 106%, the viability, T/C [14] was 99% and the viability, T/C [15] was 101%. The viability, T/C [1] was 105%, the viability, T/C [16] was 67.5% and the viability, T/C [2] was 6.39%. The viability, T/C [17] was 113%, the viability, T/C [18] was 106% and the viability, T/C [19] was 107%. It also gave a viability, T/C [3] of 105%, a viability, T/C [20] of 51% and a viability, T/C [4] of 7.07%. The viability, T/C [21] was 104%, the viability, T/C [22] was 89.3% and the viability, T/C [23] was 95.3%. The viability, T/C [5] was 100%, the viability, T/C [24] was 50.4% and the viability, T/C [6] was 4.91%. The viability, T/C [25] was 93.5%, the viability, T/C [26] was 100% and the viability, T/C [27] was 114%. The viability, T/C [7] was 103%, the viability, T/C [28] was 53.4% and the viability, T/C [8] was 5.91%. It also gave a viability, T/C [29] of 96.4%, a viability, T/C [30] of 101% and a viability, T/C [31] of 104%. It also gave a viability, T/C [9] of 94.6%, a viability, T/C [32] of 49.7% and a viability, T/C [10] of 6.33%. It also gave a viability, T/C [33] of 90.7%, a viability, T/C [34] of 91.7% and a viability, T/C [35] of 101%. The viability, T/C [11] was 97.1%, the viability, T/C [36] was 41.8% and the viability, T/C [12] was 6.78%.

— PubChem BioAssay AID2060483 (Molecular Pharmacology Branch, DTP, NCI, 2025)
